Patent US10501460B2, “Heterocyclic compounds and uses thereof” (Plexxikon Inc., priority 2013, dated 2019)

Experiments:
MV-4-11 = assay: Oncology cell growth assay MV-4-11 (CellTiter Glo, 72 hours); format: cell-based; settings: Homo sapiens, MV4-11, 72 h; MV-4-11 cell growth inhibitory activity, 3d
From the text: (§1) Published bromodomain inhibitors JQ1 and iBET 151 have shown activity in variety of cancer cells such leukemia and lymphoma, multiple myeloma cells, NUT midline carcinoma and glioblastoma cells (Dawson M A et al. 2011; Delmore J E 2011; Chen Z et al. 2013; Filippakopoulos P et al. 2010; Mertz J A et al. 2011; Ott C J et al. 2012). In this study, we test compounds in different cancer cell lines. MV-4-11 and MOLM-13 are AML cell lines harboring a MLL-AF4 and MLL-AF9 translocation, respectively. MM.1S is a multiple myeloma cell line. SK-N-AS, IMR-32 and SK-N-BE(2) are neuroblastoma cell lines. IMR-32 and SK-N-BE(2) cell lines harbor MYCN amplifications. MV-4-11, MM.1S, IMR-32, SK-N-AS and SK-N-BE(2) were obtained from ATCC (IL, USA) and MOLM-13 were purchased from DSMZ (Braunschweig, German). Cells are cultured as recommended by their sources. For growth inhibition studies 3000 cells are seeded in wells of a 96-well plate in 75 μL of culture media. After several hours, growth media containing compounds of formula (I) are added to the wells. Compound at a maximal concentration of 5 mM was serially diluted 1:3 for a total of 8 point titration with DMSO as a control. A 1 μL aliquot of each dilution point is added to 249 μL growth media and 75 μL is added to each well containing cells, providing 10 μM compound at the maximum concentration point. The final concentration of DMSO in all wells is 0.2%. Cells are incubated for 72 hours, and 25 μL of CellTiter Glo Reagent (Promega Ga., USA) is added to each well. Plates are shaken for approximately 10 minutes and chemiluminescent signal is read on Tecan microplate reader. The measured luminescence correlates directly with cell number.
(§2) All data is normalized to the mean of eight DMSO high control wells on each plate. A four parameter curve fit of the following formula was then applied: Y=a+(b−a)/(1+(x/c)^d) Where ‘a’ is the minimum, ‘b’ is the maximum, ‘c’ is the pIC50 and ‘d’ is the Hill slope. […] Myc Reporter Assay
The following table provides data indicating the BRD4 biochemical inhibitory activity and MV-4-11 cell growth inhibitory activity for exemplary compounds as described herein.

bromodomain = assay: Bromodomain cell assays of Example 40 (at least one of them); format: cell-based; settings: in at least one of the bromodomain cell assays described in Example 40
From the text: as §1, §2
In MV-4-11 cells, BRD2, BRD3 and BRD4 bind to the promoter region of MYC and regulate its transcription (Dawson M A et al. 2011). The literature bromodomain inhibitor iBET 151 could disrupt BRD4 recruitment to the MYC promoter and subsequently downregulate c-myc transcription (Dawson M A et al. 2011). Myc protein is a transcription factor that heterodimerizes with an obligatory partner Max and regulates the transcription of genes important for cell proliferation, differentiation, and apoptosis. This Myc reporter assay is used to monitor the inhibitory effect of compound of formula (I) on Myc dependent gene expression. Effective compounds could have potential therapeutic effects in Myc-driven tumors.
The MV-4-11 Myc reporter cell line is established by infecting MV-4-11 with VSV-g pseudotyped lentivirus expressing the firefly luciferase gene under the control of a minimal (m) CMV promoter and tandem repeats of the E-box transcriptional response element (TRE) (Qiagen IL, USA) and selecting cells in […] Puromycin.
The MV-4-11 Myc reporter cell line is maintained in Iscove's Modified Dulbecco's Medium containing 10% FBS, 1% PenStep and 2.5 μg/ml Puromycin. Cells are incubated at 37° C. in a humidified atmosphere with 5% CO2. 25,000 cells are seeded in 96-well plate in 50 μL of culture media. After several hours, growth media containing 2× compounds are added to the wells. Compound at a maximal concentration of 5 mM is serially diluted 1:3 for a total of 8 point titration. A 1 μl aliquot of each dilution point is added to 249 μl growth media and 50 μl is added to each well containing cells, providing 10 μM compound at the maximum concentration point. DMSO treated cells serve as a high control and 10 μM JQ1 treated cells serve as a low control. Cells are incubated for a further 24 hours and 25 μL of CellTiter-Fluo Reagent (Promega Ga., USA) is added to each well. Plates are shaken for approximately 2 minutes and incubated at 37° C. for 0.5 hour. […]

Row | SMILES | IC50 (MV-4-11) | IC50 (bromodomain)
1 | Cc1noc(C)c1-c1cnc2ccn(S(=O)(=O)c3ccccc3)c2c1 [P-0038, 4-[1-(benzenesulfonyl)pyrrolo [3,2-b]pyridin-6-yl]-3,5-dimethyl-isoxazole] | ≤ 1 µM | < 10 µM
2 | Cc1noc(C)c1-c1cnc2[nH]cc(C(O)c3cccc(OC(F)(F)F)c3)c2c1 (stereo not shown) [P-0039, [5-(3,5-dimethylisoxazol-4-yl)-1H-pyrrolo[2,3-b]pyridin-3-yl]-[3-(trifluoromethoxy)phenyl] methanol] | 1 to 10 µM | < 10 µM
3 | Cc1noc(C)c1-c1cnc2[nH]cc(C(O)c3ccccc3OC(F)F)c2c1 (stereo not shown) [P-0040, [2-(difluoromethoxy)phenyl]-[5-(3,5-dimethylisoxazol-4-yl)-1H-pyrrolo[2,3-b]pyridin-3-yl] methanol] | ≤ 1 µM | < 10 µM
4 | Cc1noc(C)c1-c1cnc2[nH]cc(C(O)c3cccc4c3OC(F)(F)O4)c2c1 (stereo not shown) [P-0041, (2,2-difluoro-1,3-benzodioxol-4-yl)-[5-(3,5-dimethylisoxazol-4-yl)-1H-pyrrolo[2,3-b]pyridin-3-yl] methanol] | 1 to 10 µM | < 10 µM
5 | CCc1[nH]c2ncc(-c3c(C)noc3C)cc2c1C(O)c1ccccc1Cl (stereo not shown) [P-0042, (2-chlorophenyl)-[5-(3,5-dimethylisoxazol-4-yl)-2-ethyl-1H-pyrrolo[2,3-b]pyridin-3-yl]methanol] | ≤ 1 µM | < 10 µM
6 | CCc1[nH]c2ncc(-c3c(C)noc3C)cc2c1C(O)c1cccc(OC(F)(F)F)c1 (stereo not shown) [P-0043, [5-(3,5-dimethylisoxazol-4-yl)-2-ethyl-1H-pyrrolo[2,3-b]pyridin-3-yl]-[3-(trifluoromethoxy)phenyl]methanol] | 1 to 10 µM | < 10 µM
7 | CCc1[nH]c2ncc(-c3c(C)noc3C)cc2c1C(O)C1CCC(F)(F)CC1 (stereo not shown) [P-0044, (4,4-difluorocyclohexyl)-[5-(3,5-dimethylisoxazol-4-yl)-2-ethyl-1H-pyrrolo[2,3-b]pyridin-3-yl]methanol] | ≤ 1 µM | < 10 µM
8 | CCc1[nH]c2ncc(-c3c(C)noc3C)cc2c1C(OC)C1CCC(F)(F)CC1 (stereo not shown) [P-0045, 4-[3-[(4,4-difluorocyclohexyl)-methoxy-methyl]-2-ethyl-1H-pyrrolo[2,3-b]pyridin-5-yl]-3,5-dimethyl-isoxazole] | ≤ 1 µM | < 10 µM
9 | Cc1noc(C)c1-c1cnc2[nH]cc(Cc3ccccc3OC(F)F)c2c1 [P-0047, 4-[3-[[2-(difluoromethoxy)phenyl]methyl]-1H-pyrrolo[2,3-b]pyridin-5-yl]-3,5-dimethyl-isoxazole] | 1 to 10 µM | < 10 µM
10 | Cc1noc(C)c1-c1cnc2[nH]cc(Cc3cccc4c3OC(F)(F)O4)c2c1 [P-0048, 4-[3-[(2,2-difluoro-1,3-benzodioxol-4-yl)methyl]-1H-pyrrolo[2,3-b]pyridin-5-yl]-3,5-dimethyl-isoxazole] | 1 to 10 µM | < 10 µM
11 | CCc1[nH]c2ncc(-c3c(C)noc3C)cc2c1Cc1ccccc1Cl [P-0049, 4-[3-[(2-chlorophenyl)methyl]-2-ethyl-1H-pyrrolo[2,3-b]pyridin-5-yl]-3,5-dimethyl-isoxazole] | 1 to 10 µM | < 10 µM
12 | Cc1noc(C)c1-c1cnc2ccn(S(=O)(=O)c3ccccc3F)c2c1 [P-0060, 4-[1-(2-fluorophenyl)sulfonylpyrrolo[3,2-b]pyridin-6-yl]-3,5-dimethyl-isoxazole] | 1 to 10 µM | < 10 µM
13 | Cc1ccc(S(=O)(=O)n2ccc3ncc(-c4c(C)noc4C)cc32)s1 [P-0062, 3,5-dimethyl-4-[1-[(5-methyl-2-thienyl)sulfonyl]pyrrolo[3,2-b]pyridin-6-yl]isoxazole] | 1 to 10 µM | < 10 µM
14 | Cc1noc(C)c1-c1cnc2[nH]cc(C(C)(C)c3ccc(F)cc3)c2c1 [P-0063, 4-[3-[1-(4-fluorophenyl)-1-methyl-ethyl]-1H-pyrrolo[2,3-b]pyridin-5-yl]-3,5-dimethyl-isoxazole] | ≤ 1 µM | < 10 µM
